According to patent publication US20260199273A1, “Compounds for the Treatment of Neuromuscular Disorders” (NMD PHARMA A/S, priority 2022, published 2026):

Assays:
[1] = tested on: isolated rat soleus nerve-muscle preparations; assay: Measurement of force in an in vitro model: recovery of nerve-stimulated contractile force after tubocurarine; settings: 40 min, 10 μM of test compound, after 40 mins of compound exposure, tubocurarine (115 nM) for 90 minutes, read-out: Point increase (%): percentage increase of initial force that was restored
Outline: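 Isolated soleus nerve-muscle preparations from 4-5 week old rats, nerve-stimulated in Krebs Ringer at 30° C, 95% O2/5% CO2, pH ~7.4. Force reduced with 115 nM tubocurarine for 90 min, then compound added. Value is percentage-point increase in initial force restored after 40 min compound exposure.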

CIC-1 ion channel = target: T1, CIC-1 ion channel (Rattus norvegicus, UniProt P35524); assay: Electrophysiological measurement of compound inhibition of CIC-1 in rat muscle (Gm in soleus fibres, three micro-electrodes); assay type: cell-based; settings: Gm in individual fibres of whole rat soleus muscles, approx. 30° C., four increasing compound concentrations; read-out: Potency Range (EC50, inhibition of CIC-1 ion channel)
T1 construct: from tissue; host or cells: whole soleus muscle of 12-14 week old Wistar rats
T1 sequence (P35524 1-994): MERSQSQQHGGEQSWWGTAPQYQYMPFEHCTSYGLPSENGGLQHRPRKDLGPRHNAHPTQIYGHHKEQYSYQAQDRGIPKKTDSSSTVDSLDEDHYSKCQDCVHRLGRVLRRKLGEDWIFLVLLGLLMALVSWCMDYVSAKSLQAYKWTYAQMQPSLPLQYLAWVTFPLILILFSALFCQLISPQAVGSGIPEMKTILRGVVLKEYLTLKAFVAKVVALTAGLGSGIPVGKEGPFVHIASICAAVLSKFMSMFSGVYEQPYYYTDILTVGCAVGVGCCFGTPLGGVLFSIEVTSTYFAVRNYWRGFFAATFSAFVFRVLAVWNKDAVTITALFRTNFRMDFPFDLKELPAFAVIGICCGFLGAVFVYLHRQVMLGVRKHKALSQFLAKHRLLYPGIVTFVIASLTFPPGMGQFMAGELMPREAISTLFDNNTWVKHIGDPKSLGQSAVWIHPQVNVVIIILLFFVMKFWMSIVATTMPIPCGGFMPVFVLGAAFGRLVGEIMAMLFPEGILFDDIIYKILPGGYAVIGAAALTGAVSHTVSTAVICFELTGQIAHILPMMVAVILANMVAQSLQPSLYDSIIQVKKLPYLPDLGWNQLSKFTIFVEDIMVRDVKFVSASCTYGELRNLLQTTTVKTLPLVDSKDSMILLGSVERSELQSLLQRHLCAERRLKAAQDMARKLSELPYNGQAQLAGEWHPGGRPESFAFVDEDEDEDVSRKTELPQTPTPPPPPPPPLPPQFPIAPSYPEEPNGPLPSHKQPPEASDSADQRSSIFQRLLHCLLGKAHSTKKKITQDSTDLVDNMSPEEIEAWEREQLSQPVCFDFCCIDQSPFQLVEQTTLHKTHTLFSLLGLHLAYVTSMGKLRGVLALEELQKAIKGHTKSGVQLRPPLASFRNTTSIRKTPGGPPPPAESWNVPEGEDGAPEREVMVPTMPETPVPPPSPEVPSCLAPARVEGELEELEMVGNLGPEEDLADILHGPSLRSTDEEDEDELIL
Protocol: Apparent CIC-1 affinity was reported by the concentration of compound at which 50% of the compound's full inhibition of CIC-1 was observed (EC50) (see also WO2019/115777).
Experimentally, Gm was measured in individual fibres of whole rat soleus muscles using a three micro-electrodes technique described in this example and in full detail elsewhere (Riisager et al., Determination of cable parameters in skeletal muscle fibres during repetitive firing of action potentials. Journal of Physiology, 2014, 592, 4417-4429). Briefly, intact rat soleus muscles were dissected out from 12-14 week old Wistar rats and placed in an experimental chamber that was perfused with a standard Krebs Ringer solution containing 122 mM NaCl, 25 mM NaHCO3, 2.8 mM KCl, 1.2 mM KH2PO4, 1.2 mM MgSO4, 1.3 mM CaCl2, 5.0 mM D-glucose. During experiments, the solution was kept at approx. 30° C. and continuously equilibrated with a mixture of 95% O2 and 5% CO2, pH ~7.4. The experimental chamber was placed in Nikon upright microscope that was used to visualize individual muscle fibres and the three electrodes (glass pipettes filled with 2 M potassium citrate). For Gm measurements, the electrodes were inserted into the same fibre with known inter-electrode distances of 0.35-0.5 mm (V1-V2, X1) and 1.1-1.5 mm (V1-V3, X3). The membrane potential of the impaled muscle fibre was recorded by all electrodes. Two of the electrodes were furthermore used to inject 50 ms current pulses of −30 nA. […] The steady state voltage deflection at each distance was divided by the magnitude of current injected (−30 nA) and the resulting transfer resistances were plotted against inter-electrode distance and the data was fitted to a mono-exponential function from which Gm could be calculated using linear cable theory.
To establish a dose response relationship, Gm was first determined in 10 muscle fibres in the absence of compound and then at four increasing compound concentrations with Gm determinations in 5-10 fibres at each concentration. The average Gm values at each concentration were plotted against compound concentration and the data was fitted to sigmoidal function to obtain an EC5o value.

SMILES | activation at 10 µM [1] [%] | EC50 (CIC-1 ion channel) [nM]
CC1(C)CCc2cc(Cl)c(F)c(C(=O)O)c2O1 [Compound A-61, 6-Chloro-7-fluoro-2,2-dimethyl-3,4-dihydro-2H-1-benzopyran-8-carboxylic acid] | 63 | 200 to 2000
O=C(O)c1c(F)c(Cl)cc2c1CCC2 [Compound A-63, 6-Chloro-5-fluoro-2,3-dihydro-1H-indene-4-carboxylic acid] | 28 | 2000 to 10000
O=C(O)c1c(F)c(Cl)cc2c1CCCS2 [Compound A-65, 7-chloro-6-fluoro-3,4-dihydro-2H-1-benzothiopyran-5-carboxylic acid] | 49 | 200 to 2000
COc1c(Cl)cc2c(c1C(=O)O)OCCC2 [Compound A-69, 6-Chloro-7-methoxy-3,4-dihydro-2H-1-benzopyran-8-carboxylic acid] | 55 | 200 to 2000
O=C(O)c1c(F)c(Cl)cc2c1N(Cc1ccsc1)CCC2 [Compound A-70, 6-Chloro-7-fluoro-1-[(3-thienyl)methyl]-1,2,3,4-tetrahydro-8-quinolinecarboxylic acid] | 25 | 200 to 2000
O=C(O)c1c(F)c(Cl)cc2c1N(Cc1ccccc1)CCC2 [Compound A-71, 1-Benzyl-6-chloro-7-fluoro-1,2,3,4-tetrahydro-8-quinolinecarboxylic acid] | 23 | 200 to 2000
O=C(O)c1c(F)c(Cl)cc2c1N(Cc1ccc(F)cc1)CCC2 [Compound A-72, 6-Chloro-7-fluoro-1-[(p-fluorophenyl)methyl]-1,2,3,4-tetrahydro-8-quinolinecarboxylic acid] | 20 | 200 to 2000
COc1c(Cl)cc2c(c1C(=O)O)CCCC2(F)F [Compound A-73, 3-Chloro-5,5-difluoro-2-methoxy-5,6,7,8-tetrahydro-1-naphthoic acid] | 23 | 200 to 2000
O=C(O)c1c(Cl)c(F)cc2c1N(Cc1ccccc1)CCC2 [Compound A-74, 1-Benzyl-7-chloro-6-fluoro-1,2,3,4-tetrahydro-8-quinolinecarboxylic acid] | 11 | 200 to 2000
